Source: publication PMC3677620, “Cytotoxicity and In Vitro Antileishmanial Activity of Antimony (V), Bismuth (V), and Tin (IV) Complexes of Lapachol” (Bioinorganic Chemistry and Applications, 2013)
Values after ≈ are worked out from the molar mass of the structure shown. Values joined by “and” are separate entries in the source; they are usually repeats but may differ in a detail not shown here. Equal values may be shown once. Read-outs that look alike come from different tables or passages of the source.

What was measured:
L. amazonensis [1] = assay: In vitro classic microscopic test, intracellular amastigotes in infected murine peritoneal macrophages; assay type: cell-based, Leishmania amazonensis (IFLA/BR/1967/PH8); conditions: for IC50, half-maximal inhibitory response (Figure 2): intracellular L. amazonensis, curve of one representative experiment; for IC50: the inhibitory concentration that killed 50% of the L. amazonensis: intracellular amastigotes in Balb/c peritoneal macrophages, 3 days exposure, based on percentage of infected macrophages; for IC50: Leishmania amazonensis, Peritoneal macrophage, 72 h
Procedure: The World Health Organization (WHO) reference strain L. amazonensis (IFLA/BR/1967/PH8) was used and typed as previously described. Promastigote forms were grown at 25°C in M199 medium (Sigma) supplemented with 10% heat-inactivated fetal calf serum (Cultilab), 40 mmol/L HEPES (Amersham), 0.1 mmol/L adenine (Sigma), 0.0005% hemin (Sigma), 0.0002% biotin (Sigma), 50 units/mL penicillin, and […] streptomycin (Invitrogen).
(§1) Animals were kept in the Animal Facility of the Centro de Pesquisas René Rachou/FIOCRUZ in strict accordance to the Guide for the Care and Use of Experimental Animals. The procedures were approved by the Internal Ethics Committee in Animal Experimentation (CEUA) of Fundação Oswaldo Cruz (FIOCRUZ), Brazil (Protocol L-042/08). Mice were euthanized with CO2 in an induction chamber prior to macrophage removal. Balb/c mice were injected intraperitoneally with 2 mL of 3% sodium thioglycollate medium. After 72 h, peritoneal macrophages were removed by washing with cold RPMI 1640 medium and enriched by adherence to round glass coverslips (13 mm) placed in a 4-well culture plate. Cells (2 × 10^5 cells/well) were cultured (37°C, 5% CO2, 18 h) in RPMI supplemented with 10% heat-inactivated FBS (fetal bovine serum) prior to infection with parasites. Macrophages were exposed to stationary phase promastigotes (2 × 10^6/well) at a final ratio of 1 : 10. The plates were incubated at 37°C, 5% CO2, for 5 h in BOD to allow internalization of parasites. Then, the medium was removed for the remaining noninternalized parasites. Negative control included only infected macrophages and medium. Incubations were tested in duplicate in two independent experiments. The substances were serial diluted with RPMI 1640 medium supplemented with 10% FBS at five different concentrations (50 → 3.1 μg/mL). For compounds (3) and (6), the dilution was 10 → 0.016 μg/mL. […] Infected macrophages were exposed daily to the compounds for 3 consecutive days. After this period, coverslips were collected, stained with Panoptic (Laborclin), and subsequently mounted with Entellan (Merck) on glass slides.
The in vitro classic microscopic test enables direct counting to determine the percentage of infected cells and/or the number of amastigotes. Here, the IC50 values were calculated based on the percentage of infected macrophages.

HepG2 cells = assay: Cytotoxicity test, MTT method, HepG2 cells; conditions: for MLD50: the minimum lethal dose that killed 50% of the cells, HepG2: MTT, 24 h; for MLD50, the minimum lethal dose (Figure 2): hepatoma HepG2 cell, curve of one representative experiment
Procedure: (§2) Balb/c murine peritoneal macrophages were obtained as described above. Cytotoxicity was determined using the MTT method (3-(4,5-dimethylthiazol-2-yl)-2,5-diphenyl tetrazolium bromide) (Sigma). HepG2 cells were kept in RPMI medium supplemented with 10% FBS, and confluent monolayers were trypsinized, washed in RPMI, and transferred to 96-well microtiter plates (4 × 10^4 cells/well) for 16–18 h. Murine macrophages were used in the concentration 2 × 10^5 cells/well in 96-well microtiter plates. The compounds were serial diluted in different concentrations (10 → 0.16 mg/mL). In both tests, the medium was removed, and the compounds were incubated for 24 h (37°C, 5% CO2). Colorimetric reaction was developed following the incubation with MTT (37°C, 5% CO2, 4 h) and addition of acidified isopropanol. The reaction was read spectrophotometrically (Spectramax M5, Molecular Devices, San Francisco, CA) with a 570 nm filter and a background of 670 nm. Incubations were tested in triplicate in two independent experiments. The minimum dose that killed 50% of the cells (MLD50) was determined, and the values were plotted to generate dose-response curves using Microcal Origin Software (Northampton, MA, USA).

murine macrophages = assay: Cytotoxicity test, MTT method, murine peritoneal macrophages; conditions: for MLD50: the minimum lethal dose that killed 50% of the cells, macrophages: murine peritoneal macrophages, MTT, 24 h
Procedure: as §1
as §2, with “The cell lineage HepG2 A16 was derived from a human hepatocellular carcinoma cell line HepG2 (ATCC HB-8065) and obtained from America Type Culture Collection line (ATCC). Balb/c” for “Balb/c”

L. amazonensis [2] = tested on: L. amazonensis; set-up: method as in PMID 15654435; conditions: strain MHOM/BR/77/LTB0016 ref 5; cited from earlier work
L. braziliensis = tested on: L. braziliensis; set-up: method as in PMID 15654435; conditions: cited from earlier work

| Molecule | IC50, half-maximal inhibitory response (Figure 2) (L. amazonensis [1]) [µg/mL] | IC50: the inhibitory concentration that killed 50% of the L. amazonensis (L. amazonensis [1]) | MLD50: the minimum lethal dose that killed 50% of the cells, HepG2 (HepG2 cells) [µg/mL] | MLD50, the minimum lethal dose (Figure 2) (HepG2 cells) [µg/mL] | MLD50: the minimum lethal dose that killed 50% of the cells, macrophages (murine macrophages) [µg/mL] | IC50 (L. amazonensis [1]; read-out: IC50: the inhibitory concentration that killed 50% of the L. amazonensis, intracellular amastigotes in Balb/c peritoneal macrophages, 3 days exposure, based on percentage of infected macrophages) [µg/mL] | SI: selective index, HepG2 (HepG2 cells; MLD50/IC50 ratio, HepG2 cells versus L. amazonensis) | SI: selective index, macrophages (murine macrophages; MLD50/IC50 ratio, murine macrophages versus L. amazonensis) | IC50 against L. amazonensis, previous studies (L. amazonensis [2]) [µg/mL] | IC50 observed for L. braziliensis (L. braziliensis) [µg/mL] | IC50 (L. amazonensis [1]; read-out: IC50: the inhibitory concentration that killed 50% of the L. amazonensis) [µg/mL] |
| --- | --- | --- | --- | --- | --- | --- | --- | --- | --- | --- | --- |
| [Cl][Bi]([Cl])([c]1ccccc1)([c]1ccccc1)[c]1ccccc1 [(4), Triphenylbismuth dichloride] | 5.51 | 5.40 ± 0.16 µg/mL | 183.75 ± 4.77 | 187.1 | 25.15 ± 0.49 |  |  |  |  |  |  |
| [Cl][Sb]([Cl])([c]1ccccc1)([c]1ccccc1)[c]1ccccc1 [(5), triphenylantimony dichloride] |  | 11.61 ± 7.85 µg/mL | 157.46 ± 37.13 |  | 30.75 ± 6.01 |  |  |  |  |  |  |
| [Cl][Sn]([c]1ccccc1)([c]1ccccc1)[c]1ccccc1 [(6), triphenyltin chloride] | 0.18 | 0.10 ± 0.11 µg/mL | 12.04 ± 8.42 | 18 | 0.73 ± 0.13 |  |  |  |  |  |  |
| CC(C)=CCC1=C(O)C(=O)c2ccccc2C1=O [(7), 2-hydroxy-3-(3′-methyl-2-butenyl)-1,4-naphthoquinone] |  | 15.48 ± 5.23 µg/mL | 201.77 ± 5.32 |  | 184.65 ± 6.58 | > 10 | 13.03 | 11.92 | 5.2 ± 0.70 (≈ 21.5 µM) | 11.9 ± 6.9 |  |
| C[C@@H]1[C@H](O)[C@@H](C)/C=C/C=C/C=C/C=C/C=C/C=C/C=C/[C@H](O[C@@H]2O[C@H](C)[C@@H](O)[C@H](N)[C@@H]2O)C[C@@H]2O[C@](O)(C[C@@H](O)C[C@@H](O)[C@H](O)CC[C@@H](O)C[C@@H](O)CC(=O)O[C@H]1C)C[C@H](O)[C@H]2C(=O)O [Amphotericin B] |  |  | 644.59 ± 126.57 |  | 179.95 ± 8.84 |  |  |  |  |  | 0.73 ± 0.6 (≈ 0.79 µM) |
| (Lp)(Ph3Bi)O0.5 [(1)] |  |  | 58.38 ± 8.47 |  | 32.4 ± 8.20 |  |  |  |  |  |  |
| (Lp)(Ph3Sb)OH [(2)] |  | > 10 µg/mL and 18.27 ± 5.58 µg/mL | 325.22 ± 89.40 |  | 130.65 ± 40.52 |  |  |  |  |  |  |
| (Lp)(Ph3Sn) [(3)] | 0.15 | 0.17 ± 0.03 µg/mL | 12.01 ± 0.17 | 11.9 | 1.6 ± 0.57 |  |  |  |  |  |  |
